Assay [1] deals with T1, human FGFR4 (Homo sapiens, UniProt P22455).
T1 construct: purchased Invitrogen P3054
The assay can be described thus: 33P isotope-labeled kinase activity assay (Reaction Biology Corp), FGFR4. It counts as biochemical. The following applies: for IC50: 33P-ATP kinase assay, ATP 100 μM, kinase 2.5 nM, substrate pEY + Mn, 120 minutes at room temperature; for Inhibition activity difference (IC50 ratio) FGFR4/FGFR1: ratio of FGFR4 IC50 to FGFR1 IC50. On the procedure: (§1) The IC50 value was determined by ^33P isotope-labeled kinase activity assay (Reaction Biology Corp) to evaluate the inhibitory activity of the test compounds on human FGFR1 and FGFR4.
(§2) Buffer: 20 mM Hepes (pH 7.5), 10 mM MgCl2, 1 mM EGTA, 0.02% Brij35, 0.02 mg/mL BSA, 0.1 mM Na3VO4, 2 mM DTT, 1% DMSO.
(§3) Test procedure: the test compound was dissolved in DMSO at room temperature to prepare a 10 mM solution for use. The substrate was dissolved in a freshly prepared buffer, followed by addition of the kinase to be tested and the resulting mixture was thoroughly mixed. The solution of the test compound in DMSO was added to the above reaction solution by acoustic technique (Echo 550). The concentration of the compound in the reaction solution was 10 μM, 3.33 μM, 1.11 μM, 0.370 μM, 0.123 μM, 41.2 nM, 13.7 nM, 4.57 nM, 1.52 nM, 0.508 nM, or […], 39.1 nM, 9.8 nM, 2.4 nM, 0.61 nM, 0.15 nM, 0.038 nM. After incubation for 15 minutes, ^33P-ATP (activity 0.01 μCi/μL, corresponding concentration was listed in table 1) was added to initiate the reaction. The reaction was allowed to proceed at room temperature for 120 minutes, then the reaction solution was spotted on P81 ion exchange filter paper (Whatman #3698-915). After the filter paper was washed with 0.75% phosphoric acid solution, the radioactivity of the remained phosphorylated substrate on the filter paper was determined. The kinase activity data was expressed as a ratio of the kinase activity of the test compound to the kinase activity of the control group (DMSO), and the IC50 value was obtained by curve fitting using Prism4 software (GraphPad).

In assay [2] the target is T2, human FGFR1 (Homo sapiens, UniProt P11362).
T2 construct: purchased Invitrogen PV3146
The assay can be described thus: 33P isotope-labeled kinase activity assay (Reaction Biology Corp), FGFR1. It counts as biochemical. The following applies: 33P-ATP kinase assay, ATP 5 μM, kinase 1.75 nM, substrate pEY + Mn, 120 minutes at room temperature. On the procedure: as §1, §2, §3

The term IC50 denotes the point on the concentration scale where inhibition reaches its midpoint.

T1 sequence (P22455 22-802): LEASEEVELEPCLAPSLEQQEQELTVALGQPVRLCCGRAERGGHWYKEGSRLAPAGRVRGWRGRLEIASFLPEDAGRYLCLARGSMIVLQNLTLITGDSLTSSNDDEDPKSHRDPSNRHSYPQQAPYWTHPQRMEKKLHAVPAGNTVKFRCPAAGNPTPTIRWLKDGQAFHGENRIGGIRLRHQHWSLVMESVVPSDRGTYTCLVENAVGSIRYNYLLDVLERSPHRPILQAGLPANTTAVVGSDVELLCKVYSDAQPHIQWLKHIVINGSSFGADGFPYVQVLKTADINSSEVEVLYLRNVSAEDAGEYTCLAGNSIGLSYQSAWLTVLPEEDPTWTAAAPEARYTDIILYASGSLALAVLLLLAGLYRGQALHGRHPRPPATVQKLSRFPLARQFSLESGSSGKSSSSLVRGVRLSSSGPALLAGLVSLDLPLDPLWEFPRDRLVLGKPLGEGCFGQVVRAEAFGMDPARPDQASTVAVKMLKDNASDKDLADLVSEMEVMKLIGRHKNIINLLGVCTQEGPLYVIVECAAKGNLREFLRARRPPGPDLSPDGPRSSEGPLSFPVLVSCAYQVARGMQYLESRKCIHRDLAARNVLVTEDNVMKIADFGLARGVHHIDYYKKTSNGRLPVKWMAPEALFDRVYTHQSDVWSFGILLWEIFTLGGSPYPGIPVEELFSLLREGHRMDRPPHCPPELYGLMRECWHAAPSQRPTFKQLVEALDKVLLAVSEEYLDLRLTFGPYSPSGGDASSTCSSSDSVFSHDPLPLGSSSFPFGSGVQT
T2 sequence (P11362 22-822): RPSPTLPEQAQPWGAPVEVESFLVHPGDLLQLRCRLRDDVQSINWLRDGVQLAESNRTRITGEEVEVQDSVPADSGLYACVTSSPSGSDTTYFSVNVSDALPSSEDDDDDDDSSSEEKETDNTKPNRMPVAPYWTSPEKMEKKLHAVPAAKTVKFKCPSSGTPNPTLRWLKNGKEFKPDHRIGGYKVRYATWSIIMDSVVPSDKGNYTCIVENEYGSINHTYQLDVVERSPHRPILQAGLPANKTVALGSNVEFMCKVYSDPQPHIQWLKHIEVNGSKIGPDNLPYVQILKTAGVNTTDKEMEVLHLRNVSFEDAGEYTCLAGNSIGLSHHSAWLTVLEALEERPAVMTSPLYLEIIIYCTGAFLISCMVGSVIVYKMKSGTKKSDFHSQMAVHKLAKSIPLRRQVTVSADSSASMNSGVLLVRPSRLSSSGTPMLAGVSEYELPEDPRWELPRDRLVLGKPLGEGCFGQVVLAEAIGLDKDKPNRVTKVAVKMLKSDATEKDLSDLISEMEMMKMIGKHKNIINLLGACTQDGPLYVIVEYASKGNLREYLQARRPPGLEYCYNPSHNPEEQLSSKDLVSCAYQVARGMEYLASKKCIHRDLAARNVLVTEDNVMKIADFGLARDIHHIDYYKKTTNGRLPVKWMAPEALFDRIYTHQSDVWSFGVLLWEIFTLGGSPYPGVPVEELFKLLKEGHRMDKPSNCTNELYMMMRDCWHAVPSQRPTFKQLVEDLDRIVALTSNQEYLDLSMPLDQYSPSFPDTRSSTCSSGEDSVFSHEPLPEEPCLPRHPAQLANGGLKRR

Regarding `C=CC(=O)N1CCC(c2cc(C#Cc3c(F)c(OC)cc(OC)c3F)c3c(N)ncnn23)C1` (single isomer, unassigned) [Embodiment 4], in assay [1], the 50% inhibitory concentration (IC50) amounted to 0.08 nM and the “Inhibition activity difference (IC50 ratio) FGFR4/FGFR1” value came out at 1. Besides, in assay [2], the IC50 turned out to be 0.07 nM.
The matching figures for `C=CC(=O)N1CCC(c2cc(C#Cc3c(Cl)c(OC)cc(OC)c3Cl)c3c(N)ncnn23)C1` (single isomer, unassigned) [Embodiment 5]: 450 nM, 21 and 21.8 nM.
On the same counts, the results for `C=CC(=O)N1CCC(c2cc(C#Cc3c(Cl)c(OC)cc(OC)c3Cl)c3c(N)ncnn23)C1` (single isomer, unassigned) [Embodiment 6] are 4.6 nM, 15 and 0.3 nM.
The matching figures for `C=CC(=O)N1CCC(c2cc(C#Cc3cc(OC)cc(OC)c3)c3c(N)ncnn23)C1` (single isomer, unassigned) [Embodiment 1]: 125 nM, 7 and 18.3 nM.
Consider `C=CC(=O)N1CCC(c2cc(C#Cc3c(F)c(OC)cc(OC)c3F)c3c(N)ncnn23)C1` (single isomer, unassigned) [Embodiment 3], for which, in assay [1], the half-inhibitory concentration (IC50) stood at 6.6 nM and the “Inhibition activity difference (IC50 ratio) FGFR4/FGFR1” value turned out to be 9. In addition, the IC50 in assay [2] came out at 0.7 nM.

The values above are taken from US11130761B2, “Substituted pyrrolo[2,1-f][1,2,4]triazines as FGFR inhibitors” (CSPC ZHONGQI PHARMACEUTICAL TECHNOLOGY (SHIJIAZHUANG) CO., …, priority 2016, dated 2021).
